This data set deals with HRBC (Human Red Blood Cells). The experiment in a line: Cellular uptake of acetylsalicylic acid in red blood cells by 1H HR-MAS NMR with shift agent Dy-BOPTA. It is filed as in vitro ADME. The text has this: Determination of Cellular Uptake of Acetylsalicylic Acid in Red Blood Cells
In this example, EXO=Acetylsalicylic acid; SA=Dy-BOPTA (Dy is the symbol of Dysprosium, one of the lanthanides known as shift agent).
The nucleus used to determine Acetylsalicylic acid cellular uptake is the proton.
The in vitro determination has been preformed on HRBC obtained by human blood treated as described below.
Centrifugation: the employed centrifuge was HERAEUS SEPATECH OMNIFUGE 2 ORS, rotor model 3360. Centrifugation was done at 2109 g (equivalent to 3500 rpm) at 4° C. for 15 minutes.
Living HRBC preparation: human blood (to which sodium citrate has been added as an anticoagulant) was centrifuged. After that, HRBC pellets were separated from serum and white cell interface, carefully obtaining a solution of red cells free of white cells; accordingly, red cells with 80% hematocrit were obtained.
Dy-BOPTA stock solution: a 0.1 M stock solution of Dy-BOPTA was used in all of the measurement to obtain the suitable [SA].
Acetylsalicylic acid stock solution: a 1 M stock solution of ASA containing 0.1 M of DSS (as internal standard for quantitative determination), was used in all of the measurements.
The solution was prepared by dissolving 180.16 mg of ASA and 23.63 mg of DSS in 200 ul of H2O, adding NaOH 2N until dissolution, lowering, if necessary, the pH to 7 with HCl 1N, then filling the volume to 1 ml. In this way two forms of ASA are generated that are below indicated as A and B.
Acetylsalicylic acid in HRBC: a sample containing 1 ml of HRBC (80% hematocrit), 100 μmoles of acetylsalicylic acid (i.e. 100 μl of acetylsalicylic acid stock solution) and 8 μmoles of Dy-BOPTA (i.e. 80 μl of Dy-BOPTA stock solution) was employed to measure the uptake of acetylsalicylic acid in HRBC.
Proton ^1H NMR spectra: all the ^1H NMR spectra have been acquired on a Bruker AMX 600 SB spectrometer at the frequency of 600.13 MHz. A multinuclear HR-MAS probehead with double bearing and 4 mm rotor with 12 μl spherical insert have been employed. Experimental conditions were: sample rotating speed=3500 Hz; spectra width=12,000 Hz (c.a. 20 ppm); time domain data points=128 K; number of scans=16; pulse length=11.7 μs; recycle delay=10 s; CPMG sequence; Fourier Transform by 0.5 Hz of enhancement multiplication function, sample temperature=25° C.
Proton spectra have been employed to determine acetylsalicylic acid cellular uptake, because ^1H is the sole nucleus present in acetylsalicylic acid having a high NMR sensitivity. […] Both of the two signals are marker^EXO signals.
The measurement of cellular uptake of acetylsalicylic acid by HRBC was calculated from the spectra reported in the enclosed FIG. 7.
Firstly, the ^1H NMR-MAS spectrum of HRBC was acquired (FIG. 7—trace a) in the absence of either acetylsalicylic acid (EXO) or of Dy-BOPTA (SA).
Then, 100 μl of acetylsalicylic acid 1M stock solution were added and the spectrum repeated (FIG. 7—trace b). In spectrum of trace b the two components for each signal A and B of the methyl group of acetylsalicylic acid were well visible, i.e. four peaks exist in the proton MAS-NMR spectrum. The splitting of signals A and B induces to suppose that the molecules of acetylsalicylic acid in the extra- and intra-cellular compartments are in magnetically different environments, i.e. the four observed signals corresponded to signals A e B into intra- and extra-cellular compartments, respectively.
Lastly, 80 μl of Dy-BOPTA stock solution were also added to the sample and the spectrum were again re-acquired (FIG. 7—trace c). […] Two components resulted unshifted with respect to the original marker^EXO signals while the other two components were shifted.
Acetylsalicylic acid corresponding to the unshifted marker^EXO signals is ACETYLSALICYLIC ACIDCC≠SA, i.e. acetylsalicylic acid in the intra-cellular compartment. […]

Regarding `CC(=O)Oc1ccccc1C(=O)O` [acetylsalicylic acid], where the note is “form A, HRBC”, the “% of cellular uptake of acetylsalicylic acid A” value turned out to be 3.04%. The “concentration of acetylsalicylic acid o (A)” value (form A, extracellular fluid volume 0.38 ml) came to 154100 µM. The “μmoles acetylsalicylic acid o (A), amount in extra-cellular compartment” value (form A, extracellular, 1 ml HRBC 80% hematocrit, 100 μmoles ASA added, 8 μmoles Dy-BOPTA, 25° C.) worked out at 58.56 µmol. In addition, the “concentration of acetylsalicylic acid i (A)” value (form A, intracellular fluid volume 0.8 ml) stood at 4830 µM. For the same molecule, for the setting “form A, intracellular, 1 ml HRBC 80% hematocrit, 100 μmoles ASA added, 8 μmoles Dy-BOPTA, 25° C.”, the “μmoles acetylsalicylic acid i (A), amount in intra-cellular compartment” value is 3.87 µmol. The “[acetylsalicylic acid]o/[acetylsalicylic acid]i (A)” value (form A, ratio of extra- to intra-cellular concentration) was 31.90. Moreover, the “% of cellular uptake of acetylsalicylic acid B” value (form B, HRBC) was determined as 10.40%. Further, the “concentration of acetylsalicylic acid o (B)” value (form B, extracellular fluid volume 0.38 ml) amounted to 79440 µM. Besides, the “μmoles acetylsalicylic acid o (B), amount in extra-cellular compartment” value (form B, extracellular, 1 ml HRBC 80% hematocrit, 100 μmoles ASA added, 8 μmoles Dy-BOPTA, 25° C.) worked out at 30.19 µmol. Besides, the “concentration of acetylsalicylic acid i (B)” value (form B, intracellular fluid volume 0.8 ml) came to 9220 µM. Further, for the setting “form B, intracellular, 1 ml HRBC 80% hematocrit, 100 μmoles ASA added, 8 μmoles Dy-BOPTA, 25° C.”, the “μmoles acetylsalicylic acid i (B), amount in intra-cellular compartment” value stood at 7.38 µmol. Further, the “[acetylsalicylic acid]o/[acetylsalicylic acid]i (B)” value (form B, ratio 79.44/9.22 of extra- to intra-cellular concentration) was 8.61. Also, for the setting “forms A + B, HRBC”, the “% of cellular uptake of total acetylsalicylic acid” value is 5.67%.

The record behind these values is US20080003632A1, “Method for the In Vitro Determination of Cellular Uptake of Exogenous and Endogenous Substances Using Nmr Shift Agents and the Magic Angle Nmr Technique” (Bracco Imaging SpA, priority 2004, published 2008).
